Reference: ChEMBL document CHEMBL1147183, “Design, synthesis, and evaluation of non-steroidal farnesoid X receptor (FXR) antagonist” (Bioorg Med Chem, 2007)
Active and inactive are the calls of the source. The calls are words filed in the database; no cut-off is given here.

How the values were obtained:
Bile acid receptor [1] = molecular target: T1, Bile acid receptor (Homo sapiens, UniProt Q96RI1); assay: Agonistic activity at FXR in HEK293 cells by GAL4 transactivation activity; format: functional, cell-based
T1 sequence (Q96RI1 whole entry): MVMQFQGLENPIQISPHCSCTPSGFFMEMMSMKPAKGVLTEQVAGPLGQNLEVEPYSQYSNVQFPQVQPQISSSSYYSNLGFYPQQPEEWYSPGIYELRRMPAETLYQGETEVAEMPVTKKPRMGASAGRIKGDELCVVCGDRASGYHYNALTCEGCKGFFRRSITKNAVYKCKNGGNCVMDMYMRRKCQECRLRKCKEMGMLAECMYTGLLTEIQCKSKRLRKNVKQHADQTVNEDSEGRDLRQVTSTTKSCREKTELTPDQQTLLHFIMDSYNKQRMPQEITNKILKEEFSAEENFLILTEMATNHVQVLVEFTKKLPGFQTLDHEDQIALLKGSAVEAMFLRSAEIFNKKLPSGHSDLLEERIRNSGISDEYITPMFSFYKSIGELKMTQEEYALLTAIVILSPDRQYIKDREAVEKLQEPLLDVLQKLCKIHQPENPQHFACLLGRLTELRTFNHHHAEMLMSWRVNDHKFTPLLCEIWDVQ

[2] = molecular target: T2, Bile acid receptor (Homo sapiens) (UniProt Q96RI1); assay: Agonistic activity at FXR in HEK293 cells at 100 uM by GAL4 transactivation activity; format: functional, cell-based
T2 sequence (whole entry): T1 sequence (Q96RI1 whole entry)

Bile acid receptor [3] = molecular target: T1, Bile acid receptor; assay: Inhibition of FXR in HEK293 cells in presence of CDCA by GAL4 transactivation activity; format: cell-based
[4] = molecular target: T2, Bile acid receptor (Homo sapiens); assay: Activity at FXR assessed by ligand-induced co-repressor recruitment by two-hybrid assay system
[5] = molecular target: T3, Progesterone receptor (Homo sapiens) (UniProt P06401); assay: Activity against PR by transactivation activity at 30 uM
T3 sequence (whole entry): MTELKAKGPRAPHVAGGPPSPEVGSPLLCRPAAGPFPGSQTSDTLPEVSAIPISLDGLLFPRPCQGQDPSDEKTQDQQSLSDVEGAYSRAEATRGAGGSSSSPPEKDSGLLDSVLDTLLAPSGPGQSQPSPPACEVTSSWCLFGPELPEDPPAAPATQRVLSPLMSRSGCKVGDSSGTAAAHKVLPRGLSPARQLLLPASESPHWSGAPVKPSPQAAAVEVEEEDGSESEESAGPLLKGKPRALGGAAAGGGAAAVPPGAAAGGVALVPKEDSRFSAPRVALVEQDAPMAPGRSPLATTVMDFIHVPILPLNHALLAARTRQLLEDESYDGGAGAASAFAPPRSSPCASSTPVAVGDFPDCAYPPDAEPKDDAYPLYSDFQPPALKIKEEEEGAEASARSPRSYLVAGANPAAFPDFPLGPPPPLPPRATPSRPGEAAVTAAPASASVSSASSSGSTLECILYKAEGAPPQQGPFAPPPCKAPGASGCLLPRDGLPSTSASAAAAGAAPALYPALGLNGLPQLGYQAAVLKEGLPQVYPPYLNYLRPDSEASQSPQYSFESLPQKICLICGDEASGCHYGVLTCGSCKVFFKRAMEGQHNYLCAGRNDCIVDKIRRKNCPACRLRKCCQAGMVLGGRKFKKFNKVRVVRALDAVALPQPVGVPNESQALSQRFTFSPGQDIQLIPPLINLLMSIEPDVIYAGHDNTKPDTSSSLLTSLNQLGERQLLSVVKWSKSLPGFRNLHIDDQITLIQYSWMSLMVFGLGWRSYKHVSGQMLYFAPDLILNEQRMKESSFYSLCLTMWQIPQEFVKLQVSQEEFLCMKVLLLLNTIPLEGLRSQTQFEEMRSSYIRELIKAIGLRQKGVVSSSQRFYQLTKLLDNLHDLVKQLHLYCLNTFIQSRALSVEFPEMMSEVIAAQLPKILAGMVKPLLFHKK

EC50 (Bile acid receptor [1]) | Activity [2] | SMILES | also measured
35100 nM | – | CC(C)c1onc(-c2c(Cl)cccc2Cl)c1COc1ccc(/C=C/c2cccc(C(=O)N(Cc3ccccc3)Cc3ccccc3)c2)c(Cl)c1 | –
– | inactive | O=C(O)c1cccc(/C=C/c2ccc(OCc3c(-c4c(Cl)cccc4Cl)noc3-c3ccccc3)cc2Cl)c1 | IC50 (Bile acid receptor [3]): 15.8 µM
3000 nM | – | CC(C)c1onc(-c2c(Cl)cccc2Cl)c1COc1ccc(C(=O)Nc2cccc(C(=O)O)c2)c(Cl)c1 | –
2100 nM | – | CCCN(C(=O)c1ccc(OCc2c(-c3c(Cl)cccc3Cl)noc2C(C)C)cc1Cl)c1cccc(C(=O)O)c1 | –
2500 nM | – | CC(C)c1onc(-c2c(Cl)cccc2Cl)c1COc1ccc(C(=O)N(Cc2ccccc2)c2cccc(C(=O)O)c2)c(Cl)c1 | –
1300 nM | – | CC(C)(C)c1onc(-c2c(Cl)cccc2Cl)c1COc1ccc(C(=O)Nc2cccc(C(=O)O)c2)c(Cl)c1 | –
– | inactive | CC(C)c1onc(-c2ccc3ccccc3c2)c1COc1ccc(/C=C/c2cccc(C(=O)O)c2)c(Cl)c1 | –
– | inactive | O=C(O)c1cccc(NC(=O)c2ccc(OCc3c(-c4c(Cl)cccc4Cl)noc3-c3ccc4ccccc4c3)cc2Cl)c1 | Activity [4]: inactive; IC50 (Bile acid receptor [3]): 4 µM; Activity [5]: inactive
– | inactive | O=C(O)c1cccc(/C=C/c2ccc(OCc3c(-c4c(Cl)cccc4Cl)noc3-c3ccc4ccccc4c3)cc2Cl)c1 | IC50 (Bile acid receptor [3]): 22.2 µM
– | inactive | O=C(O)c1cccc(/C=C/c2ccc(OCc3c(-c4c(Cl)cccc4Cl)noc3-c3ccc(-c4ccccc4)cc3)cc2Cl)c1 | IC50 (Bile acid receptor [3]): 33.9 µM
– | inactive | C/C=C1\C(=O)C[C@H]2[C@@H]3CCC4=CC(=O)CC[C@]4(C)[C@H]3CC[C@]12C | Activity [4]: inactive
– | inactive | O=C(O)c1cccc(NC(=O)c2ccc(OCc3c(-c4c(Cl)cccc4Cl)noc3-c3ccc(-c4ccccc4)cc3)cc2Cl)c1 | IC50 (Bile acid receptor [3]): 3.7 µM; Activity [5]: Active
3100 nM | – | CC(C)c1onc(-c2c(Cl)cccc2Cl)c1COc1ccc(C(=O)N(C)c2cccc(C(=O)O)c2)c(Cl)c1 | –
9000 nM | – | CCCNC(=O)c1cccc(/C=C/c2ccc(OCc3c(-c4c(Cl)cccc4Cl)noc3C(C)C)cc2Cl)c1 | –
840 nM | – | CC(C)c1onc(-c2c(Cl)cccc2Cl)c1COc1ccc(C(=O)N(CCc2ccccc2)c2cccc(C(=O)O)c2)c(Cl)c1 | –
– | inactive | CC(C)c1onc(-c2ccc(-c3ccccc3)cc2)c1COc1ccc(/C=C/c2cccc(C(=O)O)c2)c(Cl)c1 | –
1300 nM | – | CC(C)(C)c1onc(-c2c(Cl)cccc2Cl)c1COc1ccc(/C=C/c2cccc(C(=O)O)c2)c(Cl)c1 | –
